According to patent publication US7071227B2, “Antiviral compositions and methods of use” (The Johns Hopkins University, priority 2000, dated 2006):
Values after ≈ are worked out from the molar mass of the structure shown. Values joined by “and” are separate entries in the source; they are usually repeats but may differ in a detail not shown here. Equal entries are not always repeated. Where two headings read alike, the source gives them in different places.

Legend:
[1] = target: HIV-1 integrase (Human immunodeficiency virus type 1 group M subtype B, UniProt P12497); assay: HIV-1 integrase 3'-end processing assay; type: biochemical
Method: The HIV-1 integrase assay utilized in testing described below used a DNA substrate consisting of a DNA sequence derived from the U5 end of HIV-1 LTR. It was prepared by annealing oligonucleotide U5V1 (5′-[…]) with its complementary strand U5V2 (3′-[…]). The U5V1 strand was labeled at the 5′-end with [γ-^32P] ATP using T4 polynucleotide kinase as described previously (Kamata et al., 1994). The standard reaction mixture included reaction buffer (40 mM HEPES, pH 7.5, 20 mM MnCL2, 60 mM NaCl, 20 mM DTT and 0.1% Nonidet-P40) and HIV-1 integrase (NIH AIDS Research and Reference Reagent Program). To assay for 3′-end processing, the labeled substrate was incubated with the reaction mixture for 60 minutes at 37° C. An equal volume of stop solution (95% formamide, 30 mM EDTA, 0.1% xylene cyanol, 0.1% bromophenol blue) was added to each reaction and the samples were heated to 95°′ C. for 5 minutes to denature the DNA. The samples were then fractionated by electrophorsis on a 15% denaturing polyacrylamide gel. The 3′-end processing activity was monitored by the appearance of a radioactive oligonucleotides product (33 nt), shortened by two nucleotides from the original substrate (35 nt). The products were visualized by autoradiography and quantitation was carried out by phosphorimaging.

[2] = system: HIV-1IIIBA17 and HIV-1L10R/M461/L63P/V82T/184V; assay: HIV replication in infected H9 cells, HIV/p24 monoclonal antibody assay; type: cell-based; conditions: Human immunodeficiency virus 1, H9, read-out: IC50 against HIV replication
Method: The following cells and virus strains were obtained from the AIDS Research and Reference Regent Program, Division of AIDS, National Institute of Allergy and Infectious Diseases: H9 cells, virus strains of HIV-1IIIBA17, a variant resistant to RT nonnucleotide inhibitors and HIV-1L10R/M461/L63P/V82T/184V, a protease inhibitor resistant virus, as well as viral strains HTLV-IIImn, HIV-1RTMF and HTLV-IIIB. Virus-infected H9 cells were cultured in the presence of different concentrations of M522 and M532 and viral replication was assayed using the HIV/p24 monoclonal antibody assay.
The inhibitory effect of M522 and M532 against HIV replication was further examined using HIV-1IIIBA17, a variant resistant to RT nonnucleotide inhibitors and HIV-1L10R/M461/L63P/V82T/184V, a protease inhibitor resistant virus, as testing viruses in the presence of a variety of drug concentrations in infected H9 cells.
FIG. 7A graphically illustrates the effect of M522 and M532 on HIV-1 replication. FIG. 7A illustrates the dose-dependent inhibition of HIV-1 replication in H9 cells infected with HIV-1IIIBA17 and HIV-1L10R/M461/L63P/V82T/184V viruses in the presence of different drug concentrations of M522 and M532.

[3] = system: H9 cells; assay: MTT cytotoxicity assay; type: cell-based, human; conditions: 4 days
Method: The cytotoxicity of M522 and M532 drugs against H9 cells was analyzed using MTT [3-(4,5-dimethylthiazol-2-yl)-2,5-diphenyltetrazolium bromide] assay (Sigma Chemical Co.) (Uckun et al., 1998). Briefly, exponentially growing H9 cells were seeded onto 96-well plates at a density of 3×10^4 cells/well and incubated for 24 h at 37° C. prior to drug exposure. On the day of treatment, a series Of M522 and M532 concentrations (1.25, 2.5, 5, 10, 20, 40, 80, and 160 μg/ ml) were used to test their cytotoxicity in H9 cells. Quadruplicate wells were used for each treatment. The cells were incubated with M522 and M532 for 4 days at 37° C. in a humidified 5% CO2 atmosphere. To each well, 50 μl of MTT (1 mg/ml final concentration) was added and the plates were incubated at 37° C. for 4 h to allow MTT to form formazan crystals by reacting with metabolically active cells. The formazan crystals were solubilized with DMSO. The absorbance of each well was measured in a microtiter reader at optical density 540 nm. The reaction is specific, no significant amounts of formazan can be detected with dead cells.

[4] = system: HIV-1IIIBA17 variant; assay: HIV-1 replication in H9 cells, p24 antigen assay; type: cell-based; conditions: for inhibition at 1.25 µg/mL / inhibition at 2.5 µg/mL / inhibition at 5 µg/mL / inhibition at 10 µg/mL / inhibition at 20 µg/mL / inhibition at 40 µg/mL / inhibition at 80 µg/mL: Human immunodeficiency virus 1, H9; for IC50: Human immunodeficiency virus 1, H9, 192 h, read-out: IC50, HIV-1 replication
Method: (§1) Inhibitory activity of M522 and M532 against the replication of four different HIV-1 strains was tested in this example. Two of the strains were drug-resistant virus isolates (HIV-1RTMF resistant against AZT and HIV-1IIIBA17 variant resistant against inhibition by RT nonnucleotide inhibitors) and the other two were primary isolates (HTLV-IIIMN and HTLV-IIIB).
(§2) On the day before infection, H9 cells were subcultured at 1–2×10^5 cells/ml and on the day of the infection, cells were pelleted by centrifugation at room temperature for 10 minutes. The pellet was then resuspended with 1 ml of each strain according to the virus titer. The mixtures were incubated at 37 ° C. in CO2 incubator for 2 hours. The cells were then washed two times with PBS and then two times with the culture medium (RPMI 1640). The cells were resuspended with fresh medium and plated in 96 well plates. Every 3–4 days after infection, cells were sub-cultured and supernatant was saved to assay for virus production.
(§3) The activity of M522 against the four strains were tested at various drug concentrations of 80, 40, 20, 10, 5, 2.5, 1.25, and 0 μg/ml. After 8 days, the infection of the cells was detected by using HIV-1 p24 antigen assay, which is an enzyme immunoassay (EIA, or enzyme-linked immunosorbent assay) developed for detection and quantitation of the HIV-1 p24 core protein.

[5] = system: HIV-1RTMF; assay: HIV-1 replication in H9 cells, p24 antigen assay; type: cell-based; conditions: for inhibition at 1.25 µg/mL / inhibition at 2.5 µg/mL / inhibition at 5 µg/mL / inhibition at 10 µg/mL / inhibition at 20 µg/mL / inhibition at 40 µg/mL / inhibition at 80 µg/mL: Human immunodeficiency virus 1, H9; for IC50: Human immunodeficiency virus 1, H9, 192 h, read-out: IC50, HIV-1 replication
Method: as §1, §2, §3

[6] = system: HTLV-IIIB; assay: HIV-1 replication in H9 cells, p24 antigen assay; type: cell-based; conditions: for IC50: Human immunodeficiency virus 1, 192 h, H9 cells, 8 days; for inhibition at 1.25 µg/mL: Human immunodeficiency virus 1, H9, 1.25 μg/ml; for inhibition at 2.5 µg/mL: Human immunodeficiency virus 1, H9, 2.5 μg/ml; for inhibition at 5 µg/mL: Human immunodeficiency virus 1, H9, 5.0 μg/ml; for inhibition at 10 µg/mL: Human immunodeficiency virus 1, H9, 10.0 μg/ml; for inhibition at 20 µg/mL: Human immunodeficiency virus 1, H9, 20.0 μg/ml; for inhibition at 40 µg/mL: Human immunodeficiency virus 1, H9, 40.0 μg/ml; for inhibition at 80 µg/mL: Human immunodeficiency virus 1, H9, 80.0 μg/ml
Method: as §1, §2, §3

[7] = system: HTLV-IIIMN; assay: HIV-1 replication in H9 cells, p24 antigen assay; type: cell-based; conditions: for IC50: Human immunodeficiency virus 1, 192 h, H9 cells, 8 days; for inhibition at 1.25 µg/mL: Human immunodeficiency virus 1, H9, 1.25 μg/ml; for inhibition at 2.5 µg/mL: Human immunodeficiency virus 1, H9, 2.5 μg/ml; for inhibition at 5 µg/mL: Human immunodeficiency virus 1, H9, 5.0 μg/ml; for inhibition at 10 µg/mL: Human immunodeficiency virus 1, H9, 10.0 μg/ml; for inhibition at 20 µg/mL: Human immunodeficiency virus 1, H9, 20.0 μg/ml; for inhibition at 40 µg/mL: Human immunodeficiency virus 1, H9, 40.0 μg/ml; for inhibition at 80 µg/mL: Human immunodeficiency virus 1, H9, 80.0 μg/ml
Method: as §1, §2, §3

SMILES | IC50 [2] | CC100; cells remained viable at highest concentration tested [3] [µM] | inhibition at 1.25 µg/mL [4] [%] | inhibition at 2.5 µg/mL [4] [%] | inhibition at 5 µg/mL [4] [%] | inhibition at 10 µg/mL [4] [%] | inhibition at 20 µg/mL [4] [%] | inhibition at 40 µg/mL [4] [%] | inhibition at 80 µg/mL [4] [%] | IC50 [4] [µg/mL] | inhibition at 1.25 µg/mL [5] [%] | inhibition at 2.5 µg/mL [5] [%] | inhibition at 5 µg/mL [5] [%] | inhibition at 10 µg/mL [5] [%] | inhibition at 20 µg/mL [5] [%] | inhibition at 40 µg/mL [5] [%] | inhibition at 80 µg/mL [5] [%] | IC50 [5] [µg/mL] | IC50 [6] [µg/mL] | inhibition at 1.25 µg/mL [6] [%] | further results
O=C(/C=C/c1ccc(O)c2c1[C@H](C(=O)O)[C@@H](c1ccc(O)c(O)c1)O2)O[C@H](Cc1ccc(O)c(O)c1)C(=O)O [M522, 4-{2-[1-carboxy-2-(3,4-dihydroxy-phenyl)-ethoxycarbonyl]-vinyl}-2-(3,4-dihydroxy-phenyl)-7-hydroxy-2,3-dihydro-benzofuran-3-carboxylic acid] | 1.5 µg/mL and 2.7 µM | > 297 | 51.2 | 53.6 | 76.8 | 85 | 90.2 | 100 | 100 | 1.5 (≈ 2.79 µM) | 26.2 | 47.7 | 78.6 | 83.4 | 95.5 | 98.2 | 100 | 2.7 (≈ 5.01 µM) | 11 (≈ 20.4 µM) | 31.4 | IC50 ([1]; read-out: IC50, inhibition of HIV-1 integrase 3' processing activity (converted)): 836 nM and 830 nM; inhibition at 2.5 µg/mL [6]: 42.1%; inhibition at 5 µg/mL [6]: 45.9%; inhibition at 10 µg/mL [6]: 47.3%; inhibition at 20 µg/mL [6]: 62%; inhibition at 40 µg/mL [6]: 82.4%; inhibition at 80 µg/mL [6]: 94.5%; IC50 [7]: 9 µg/mL (≈ 16.7 µM); inhibition at 1.25 µg/mL [7]: 7.7%; inhibition at 2.5 µg/mL [7]: 21.8%; inhibition at 5 µg/mL [7]: 30%; inhibition at 10 µg/mL [7]: 51.9%; inhibition at 20 µg/mL [7]: 72.1%; inhibition at 40 µg/mL [7]: 77.3%; inhibition at 80 µg/mL [7]: 88.4%
O=C(/C=C/c1ccc(O)c2c1[C@H](C(=O)O[C@H](Cc1ccc(O)c(O)c1)C(=O)O)[C@@H](c1ccc(O)c(O)c1)O2)O[C@H](Cc1ccc(O)c(O)c1)C(=O)O [M532, 4-{2-[1-carboxy-2-(3,4-dihydroxy-phenyl)-ethoxycarbonyl]-vinyl}-2-(3,4-dihydroxy-phenyl)-7-hydroxy-2,3-dihydro-benzofuran-3-carboxylic acid 1-carboxy-2-(3,4-dihydroxy-phenyl)-ethyl ester] | 1 µg/mL and 1.39 µM | > 223 | 2 | 21.8 | 50 | 53.6 | 97.5 | 97.7 | 98.4 | 5 (≈ 6.96 µM) | 20.8 | 38.7 | 44.2 | 73.6 | 90.4 | 95 | 98.3 | 5.6 (≈ 7.79 µM) | 11 (≈ 15.3 µM) | 4.7 | IC50 ([1]; IC50, inhibition of HIV-1 integrase 3' processing activity): 487 nM and 450 nM; inhibition at 2.5 µg/mL [6]: 16.1%; inhibition at 5 µg/mL [6]: 20.1%; inhibition at 10 µg/mL [6]: 34.5%; inhibition at 20 µg/mL [6]: 90.8%; inhibition at 40 µg/mL [6]: 96.2%; inhibition at 80 µg/mL [6]: 96.8%; IC50 [7]: 5.5 µg/mL (≈ 7.65 µM); inhibition at 1.25 µg/mL [7]: 8.3%; inhibition at 2.5 µg/mL [7]: 45.7%; inhibition at 5 µg/mL [7]: 47%; inhibition at 10 µg/mL [7]: 57.2%; inhibition at 20 µg/mL [7]: 87%; inhibition at 40 µg/mL [7]: 90%; inhibition at 80 µg/mL [7]: 94.1%
